# Results taken from US10172789B2, “Compositions for transdermal delivery of mTOR inhibitors” (PALVELLA THERAPEUTICS LLC, priority 2013, dated 2019).
# Entries after “also recorded” stand apart in the source; their conditions may differ.
# Legend:
# [1] = test system: ribosomal protein S6 phosphorylation; assay: S6 phosphorylation (P-S6) western blot in human HaCaT keratinocytes; format: cell-based
# Method: (§1) FIGS. 1C-F show immunochemistry […] images of frozen skin sections taken from mice treated with the same creams as FIG. 1B.
# (§2) To evaluate whether benzyl alcohol has deleterious effects on rapamycin activity, rapamycin was dissolved in benzyl alcohol (and compared with other solvents as indicated) and evaluated for its ability to block phosphorylation of ribosomal protein S6, a commonly used method to assess mTOR pathway inhibition by rapamycin, in human HaCaT and patient-derived keratinocytes. […] In the assays described below, a P-S6-specific antibody recognizes only the phosphorylated form of S6 whereas the other antibody recognizes total S6 protein (i.e., both P-S6 and unphosphorylated S6). […] The inhibition of phospho-S6 was observed by both western blot analysis of protein extracts from treated mouse skin (FIG. 1B) and by immunohistochemistry (IHC) of frozen sections prepared from treated mouse skin (FIG. 1C-F).
# Next-generation mTOR inhibitors have similar effects on ribosomal protein S6-phosphoylation (p-S6) when compared to rapamycin. […] The p-S6 levels were quantified and the ratio of p-S6 to total S6 (total S6 data not shown) was graphed in FIG. 2B in similar fashion to FIG. 1.
# [2] = test system: ribosomal protein S6 phosphorylation; assay: S6 phosphorylation in mouse skin after topical formulation (western blot, IHC); format: in vivo; details: mouse skin including ears, topical formulation with rapamycin dissolved in benzyl alcohol; western blot and IHC
# Method: as §1, §2
# mouse skin = assay: Gross examination of topically-treated mouse ears, flanks and footpads; format: in vivo; details: flanks and footpads vs untreated or placebo-treated skin, data not shown
# [3] = Rapamycin distribution in human explant skin after topical application (reverse-phase HPLC); format: in vitro ADME
# Method: Rapamycin extracted from the indicated tissue slices was assayed by reverse-phase HPLC. The tissue surface was cleaned with isopropyl alcohol prior to sectioning to remove any residual surface material.
# To test delivery of rapamycin from a formulation similar to that disclosed in Example 2, the formulation was applied to explant human skin.
compound,measurement,setting,value
CO[C@H]1C[C@@H]2CC[C@@H](C)[C@@](O)(O2)C(=O)C(=O)N2CCCC[C@H]2C(=O)O[C@H]([C@H](C)C[C@@H]2CC[C@@H](O)[C@H](OC)C2)CC(=O)[C@H](C)/C=C(\C)[C@@H](O)[C@@H](OC)C(=O)[C@H](C)C[C@H](C)/C=C/C=C/C=C/1C [rapamycin],effect on total S6 protein levels,[1]; rapamycin dissolved in benzyl alcohol or other solvents,little or no effect
same,inhibition of ribosomal protein S6 phosphorylation (P-S6),"[1]; rapamycin dissolved in benzyl alcohol, DMSO, ethanol or diglycol, FIG. 1A",efficiently inhibits
same,S6 phosphorylation relative to total S6 protein,[2],inhibited
same,skin irritation on gross examination,mouse skin,little or no irritation
same,net deposition of rapamycin within the skin,[3]; 16 hours after application of rapamycin formulation,> 4 % of the applied dose
same,rapamycin concentrations within the epidermis (and dermis),"[3]; 16 hours after topical application, formulation similar to Example 2, compared with level needed to inhibit S6 phosphorylation in cell culture",many fold higher than required for in vitro activity; also recorded: well above the IC50 value
